C=C1C[C@]23C[C@H]1CC[C@H]2[C@@]12CC[C@H](O)[C@@](C)(C(=O)O1)[C@H]2[C@@H]3C(=O)O
solubility (mole fraction)
Conditions | in acetone | in acetonitrile | in ethanol | in ethyl acetate | in isopropanol | in methanol | in n-butanol | in water
278.15 K | 0.053 | 0.00391 | 0.000809 | 0.0105 | 0.0691 | 0.0466 | 0.0588 | 9e-06
283.15 K | 0.057 | 0.00457 | 0.000911 | 0.0118 | 0.0745 | 0.051 | 0.0613 | 1.2e-05
288.15 K | 0.0596 | 0.00529 | 0.00107 | 0.0134 | 0.0775 | 0.0559 | 0.0674 | 1.7e-05
293.15 K | 0.0645 | 0.00647 | 0.00118 | 0.0157 | 0.0859 | 0.0637 | 0.0723 | 2.1e-05
298.15 K | 0.0692 | 0.00776 | 0.00133 | 0.0172 | 0.0916 | 0.0705 | 0.0762 | 2.8e-05
303.15 K | 0.0759 | 0.00907 | 0.00159 | 0.0195 | 0.0969 | 0.0743 | 0.0798 | 3.4e-05
308.15 K | 0.0801 | 0.0108 | 0.00187 | 0.0211 | 0.103 | 0.0805 | 0.0836 | 4.4e-05
313.15 K | 0.0862 | 0.0124 | 0.00217 | 0.0239 | 0.11 | 0.0882 | 0.0872 | 5.3e-05
318.15 K | 0.0917 | 0.0135 | 0.00257 | 0.0265 | 0.12 | 0.0933 | 0.0931 | 6.1e-05
323.15 K | 0.0983 | 0.0149 | 0.00273 | 0.0299 | 0.123 | 0.101 | 0.1 | 7.3e-05
328.15 K | 0.106 | 0.0168 | 0.00318 | 0.0325 | 0.131 | 0.11 | 0.109 | 9.2e-05
333.15 K | 0.112 | 0.0188 | 0.00387 | 0.0357 | 0.14 | 0.121 | 0.119 | 0.00012
